From US5128331A, “Method for lowering plasma lipid levels or blood pressure” (priority 1988, dated 1992)
Entries after “also recorded” stand apart in the source; their conditions may differ. Like-named read-outs stand apart in the source and are kept apart here.

Assays:
Format in all cases: in vivo
[1] = test system: mice of the OF1 strain; assay: Hypolipidemic activity: plasma cholesterol and plasma triglycerides in mice fed compound in chow; conditions: for change in vivo at 180 mg/kg: Mus musculus, feed or water, 240 h
Method: With the goal of finding new drugs which might be hypolipidemic, the new diphosphonates described in this patent application were administered orally to mice. This rodent species has plasma lipid level relatively close to man (generally greater than 150 mg/dl). For example, in mice receiving a normal diet the plasma cholesterol and triglyceride levels are in the range of 100 mg/dl, whereas for rat the comparative values are close to 50 mg/dl.
In every screening experiment, 30 mice of the OF1 strain weighing 25 to 35 g were divided into 5 groups of 6 animals each. Four groups received the compounds to be tested, or the reference drugs, the fifth group served as control. Compounds were dissolved in diethyl ether, and solution was added to the pelleted food and the ether was evaporated.
All compounds were tested at the final concentration of 0.1% in animal chow, equivalent to a daily intake of about 180 mg/kg. This diet was fed for 10 days, then after an overnight fasting the animals were sacrified by decapitation under ether anesthesia. Blood samples were collected in EDTA containing tubes.
Plasma cholesterol and plasma triglycerides were measured by enzymatic methods (Ames kit No. 6376 and No. 6630).

[2] = test system: rat paw oedema; assay: Anti-inflammatory activity: kappa carrageenan rat paw oedema model; conditions: for Inhibition of rat right hind paw volume increase, % Change from control: 4 hours post oedema induction, test compounds 100 mg/kg, indomethacin 30 mg/kg by gavage 1 hour prior; for anti-inflammatory activity (in words): rat paw oedema, 4 hours
Method: The effect of four selected diphosphates was investigated on the inflammatory response to kappa carrageenan in the rat paw oedema model. Eight male rats were employed per group. Oedema was induced in the right hind paw of each animal by a single injection into the plantar aponeurosis of 0.1 ml of a 1% w/v of kappa carrageena solution dissolved in 0.9% NaCl. The test compounds (100 mg/kg) and reference drug (indomethacin 30 mg/kg) were administered by gavage 1 hour prior to induction of oedema by carrageanan injection.
The volume of the right paw was measured for each animal at 0, 1, 2.5 and 4 hours after carrageenan injection (only 4 hour values are reported.

[3] = test system: spontaneously hypertensive rat (SHR); assay: Oral hypotensive activity in spontaneously hypertensive rats (SHR); conditions: for Percent change in blood pressure: 2 hours post dose, Table 5
Method: The spontaneously hypertensive rat (SHR) is a well established animal model of human arterial hypertension.
In screening experiments various gem-diphosphonates were dissolved in Tween-80 and administered orally to SH rats. Blood pressure was monitored hourly using a tailcuff method.

[4] = mice, 0.1% in animal chow (about 180 mg/kg daily), 10 days, Table 3, given as change from control, read-out: Cholesterol (% control)
[5] = mice, 0.1% in animal chow (about 180 mg/kg daily), 10 days, Table 3, given as change from control, read-out: Triglycerides (% control)
[6] = read-out: Cholesterol (% control)
[7] = read-out: Triglycerides (% control)

SMILES | Inhibition of rat right hind paw volume increase, % Change from control [2] | change in vivo at 180 mg/kg [1, 6] | change in vivo at 180 mg/kg [1, 7] | hypocholesterolemic activity (in words) ([1]; mice, 0.1% in chow, 10 days) | hypotriglyceridemia (in words) ([1]; mice, 0.1% in chow, 10 days) | Percent change in blood pressure [3] | other results
CC(C)(C)c1cc(C=C(P(=O)(O)O)P(=O)(O)O)cc(C(C)(C)C)c1O [Compound 36] | -25.0 % Change from control |  |  |  |  |  | change in vivo at 180 mg/kg [1, 4]: -9%; change in vivo at 180 mg/kg [1, 5]: -5%; anti-inflammatory activity (in words) [2]: significant inhibitory activities
CCOP(=O)(OCC)C(Cc1cc(C(C)CC)c(O)c(C(C)CC)c1)P(=O)(OCC)OCC (centres unmarked) [Compound 3] |  | -19% | -46% | hypocholesterolemic | significant hypotriglyceridemia | -20% | decreased plasma triglycerides by ([1]; mice, 0.1% in chow, 10 days): more than 44%
CCOP(=O)(OCC)C(=Cc1cc(C(C)(C)C)c(O)c(C(C)(C)C)c1)P(=O)(OCC)OCC [Compound 33, Tetraethyl 2-(3,5-ditertiarybutyl-4-hydroxyphenyl)-ethenylidene-1,1-diphosphonate] | -5.8 % Change from control | -40% | -21% | hypocholesterolemic | significant hypotriglyceridemia |  | hypocholesterolemic potency (plasma cholesterol change) ([1]; mice, 0.1% in chow, 10 days): -40%
CC(C)(C)c1cc(CC(P(=O)(O)O)P(=O)(O)O)cc(C(C)(C)C)c1O [Compound 8, 2-(3,5-ditertiarybutyl-4-hydroxyphenyl)-ethylidene-1,1-diphosphonic acid] | -54.2 % Change from control |  |  |  |  |  | change in vivo at 180 mg/kg [1, 4]: -2%; change in vivo at 180 mg/kg [1, 5]: 19%; anti-inflammatory activity (in words) [2]: significant inhibitory activities; also recorded: anti-inflammatory
CCCCOP(=O)(OCCCC)C(Cc1cc(C(C)(C)C)c(O)c(C(C)(C)C)c1)P(=O)(OCCCC)OCCCC [Compound 7, Tetrabutyl 2-(3,5-ditertiary-4-hydroxyphenyl)-ethylidene-1,1-diphosphonate] |  | -23% | -15% | hypocholesterolemic | significant hypotriglyceridemia | -30% | hypotensive potency compared with reference drugs (in words) [3]: as potent as the reference drugs
CCOP(=O)(OCC)C(Cc1cc(C(C)(C)C)c(O)c(C(C)(C)C)c1)P(=O)(OCC)OCC [Compound 4, Tetraethyl 2-(3,5-ditertiarybutyl-4-hydroxyphenyl)-ethylidene-1,1-diphosphonate] | +1.5 % Change from control | -12% | -1% | hypocholesterolemic |  | -34% | hypotensive potency compared with reference drugs (in words) [3]: as potent as the reference drugs
CCCCOP(=O)(OCCCC)C(Cc1cc(C(C)(C)C)c(O)c(C(C)(C)C)c1)P(=O)(OCC)OCC (centres unmarked) [Compound 18] |  | -31% | 60% | hypocholesterolemic |  | -41% | hypotensive potency compared with reference drugs (in words) [3]: as potent as the reference drugs
CC(C)OP(=O)(OC(C)C)C(Cc1cc(C(C)(C)C)c(O)c(C(C)(C)C)c1)P(=O)(OC(C)C)OC(C)C [Compound 6] |  | -37% | -34% | hypocholesterolemic | significant hypotriglyceridemia | -64% | hypotensive potency compared with reference drugs (in words) [3]: as potent as the reference drugs
COc1ccc2c(c1)c(CC(=O)O)c(C)n2C(=O)c1ccc(Cl)cc1 [Indomethacin, reference compound] | -92.3 % Change from control |  |  |  |  |  | anti-inflammatory activity (in words) [2]: prevented completely the increase in paw volume
CCOP(=O)(OCC)C(=Cc1cc(C(C)(C)C)cc(C(C)(C)C)c1O)P(=O)(OCC)OCC [Compound 46] |  | 1% | -12% |  |  |  | 
CCOP(=O)(OCC)C(Cc1cc2c(cc1Cl)OCO2)P(=O)(OCC)OCC [Compound 13, Tetraethyl 2-(3,4-methylenedioxy-6-chlorophenyl)-ethylidene-1,1-diphosphonate] |  | -5% | 38% |  |  |  | 
COc1ccc([C@@H]2Sc3ccccc3N(CCN(C)C)C(=O)[C@@H]2OC(C)=O)cc1 [Diltiazem, reference compound] |  |  |  |  |  | -38% | 
CCCOP(=O)(OCCC)C(=Cc1cc(C(C)(C)C)c(O)c(C(C)(C)C)c1)P(=O)(OCCC)OCCC [Compound 48] |  |  |  | hypocholesterolemic | significant hypotriglyceridemia |  | change in vivo at 180 mg/kg [1, 4]: -21%; change in vivo at 180 mg/kg [1, 5]: -36%
CCOP(=O)(OCC)C(Cc1cc(C(C)C)c(O)c(C(C)C)c1)P(=O)(OCC)OCC [Compound 2] |  | 6% | -17% |  |  |  | 
